Test results: US8716493B2, “Multicyclic compounds and the use thereof” (Cephalon, Inc., priority 2000, dated 2014)
Counter-ions that a name gives are not always drawn.

target: recombinant human PARP (Homo sapiens, UniProt P09874); experiment: Measurement of PARP enzymatic activity (transfer of radiolabeled ADP-ribose from NAD+ to protein acceptor); assay type: biochemical; conditions: PARP IC50 (nM), Table 2
Summary of the method: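 Radiometric assay measuring transfer of [32P]ADP-ribose from NAD+ (100 μM, 2 uCi/mL label) to histone or PARP automodification, 12 min at room temperature; acid-insoluble radioactivity counted by scintillation.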

Sequence of recombinant human PARP (P09874 whole entry): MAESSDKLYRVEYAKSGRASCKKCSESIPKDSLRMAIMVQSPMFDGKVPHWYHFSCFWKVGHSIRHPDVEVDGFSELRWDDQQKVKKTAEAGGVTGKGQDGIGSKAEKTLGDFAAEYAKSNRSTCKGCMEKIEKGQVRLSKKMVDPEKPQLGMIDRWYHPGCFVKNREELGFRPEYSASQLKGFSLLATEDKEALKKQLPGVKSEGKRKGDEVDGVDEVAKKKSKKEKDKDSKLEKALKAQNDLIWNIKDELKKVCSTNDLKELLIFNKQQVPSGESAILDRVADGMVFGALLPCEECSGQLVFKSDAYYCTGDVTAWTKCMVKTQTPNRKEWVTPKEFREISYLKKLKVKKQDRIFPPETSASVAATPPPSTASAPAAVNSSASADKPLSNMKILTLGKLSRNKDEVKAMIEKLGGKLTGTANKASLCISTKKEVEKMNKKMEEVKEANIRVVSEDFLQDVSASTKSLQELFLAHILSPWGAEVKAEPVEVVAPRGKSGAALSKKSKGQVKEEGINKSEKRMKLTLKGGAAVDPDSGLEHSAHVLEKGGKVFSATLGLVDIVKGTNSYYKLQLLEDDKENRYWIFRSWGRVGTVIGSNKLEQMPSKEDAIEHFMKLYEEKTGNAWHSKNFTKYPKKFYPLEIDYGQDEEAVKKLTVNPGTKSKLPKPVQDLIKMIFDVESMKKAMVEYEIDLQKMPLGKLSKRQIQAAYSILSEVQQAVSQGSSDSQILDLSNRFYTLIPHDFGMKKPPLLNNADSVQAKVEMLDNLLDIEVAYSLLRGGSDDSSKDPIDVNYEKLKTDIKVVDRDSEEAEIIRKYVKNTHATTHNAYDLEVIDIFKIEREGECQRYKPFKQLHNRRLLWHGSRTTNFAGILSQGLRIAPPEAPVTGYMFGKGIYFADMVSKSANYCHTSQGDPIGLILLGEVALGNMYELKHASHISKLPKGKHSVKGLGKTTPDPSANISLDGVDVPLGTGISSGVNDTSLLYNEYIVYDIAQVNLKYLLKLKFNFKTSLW

Which IC50 does the source give for `O=C1NC(=O)c2c1c1c(c3[nH]c4ccc(-c5csc(CNC(=O)C6CC6)n5)cc4c23)CCC1` [Compound 3w] here?
Its IC50 is 49 nM.

same assay, conditions: PARP IC50 (nM), Table 8

For `O=C(NCCc1ccccn1)Oc1ccc2[nH]c3c4c(c5c(c3c2c1)C(=O)NC5=O)CCC4` [Compound 15g], which IC50 is on record?
Its IC50 is 36 nM.

Which IC50 does the source give for `O=C1NC(=O)c2c1c1c(c3[nH]c4ccc(OC(=O)N5CCOCC5)cc4c23)CCC1` [Compound 15a] here?
The IC50 was 35 nM.

Which IC50 does the source give for `O=C(NCCCn1ccnc1)Oc1ccc2[nH]c3c4c(c5c(c3c2c1)C(=O)NC5=O)CCC4` [Compound 15d] here?
The IC50 was 32 nM.

For `O=C(NN1CCOCC1)Oc1ccc2[nH]c3c4c(c5c(c3c2c1)C(=O)NC5=O)CCC4` [Compound 15k], which IC50 is on record?
The IC50 was 20 nM.

Which IC50 does the source give for `O=C(NCCCN1CCCC1=O)Oc1ccc2[nH]c3c4c(c5c(c3c2c1)C(=O)NC5=O)CCC4` [Compound 15e] here?
Its IC50 is 28 nM.

same assay, conditions: PARP IC50, Table 18

How did the IC50 turn out when `O=C1NC(=O)c2c1c1c(c3[nH]c4ccc(OC(=O)N5CCOCCOCCOCC5)cc4c23)CCC1` [Compound 15o] was run?
The IC50 was 76 nM.

same assay, conditions: Table 1; read-out: PARP IC50

Which IC50 does the source give for `O=C1NC(=O)c2c1c1c(c3[nH]c4ccccc4c23)CCC1` [Compound 1a, 5,7,8,9,10,11-hexahydrocyclopent[a]pyrrolo[3,4-c]carbazole-5(6H), 7-dione] here?
The IC50 was 36 nM.

same assay, conditions: Table 2; read-out: PARP IC50

With `O=C(O)c1nccnc1C(=O)c1ccc2[nH]c3c4c(c5c(c3c2c1)C(=O)NC5=O)CCC4` [Compound 4k] as the compound, how does the IC50 read?
Its IC50 is 1 nM.

Which IC50 does the source give for `N#CCc1ccc2[nH]c3c4c(c5c(c3c2c1)C(=O)NC5=O)CCC4` [Compound 2bc] here?
Its IC50 is 24 nM.

Which IC50 does the source give for `O=C1NC(=O)c2c1c1c(c3[nH]c4ccc(S(=O)(=O)O)cc4c23)CCC1` [Compound 2ae] here?
The IC50 was 8 nM.

How did the IC50 turn out when `COc1ccc2[nH]c3c4c(c5c(c3c2c1)C(=O)NC5=O)CCC4` [Compound 2ap] was run?
The IC50 was 32 nM.

For `Cc1ccc2[nH]c3c4c(c5c(c3c2c1)C(=O)NC5=O)CCC4` [Compound 2bf], which IC50 is on record?
Its IC50 is 82 nM.

For `O=C1NC(=O)c2c1c1c(c3[nH]c4ccc(-c5csc(NC6OC(CO)C(O)C(O)C6O)n5)cc4c23)CCC1` (centres unmarked) [Compound 3ab], which IC50 is on record?
The IC50 was 17 nM.

For `O=C(NCCN1CCOCC1)c1ccc2[nH]c3c4c(c5c(c3c2c1)C(=O)NC5=O)CCC4` [Compound 2cn], which IC50 is on record?
Its IC50 is 26 nM.

For `CN1CCN(CC(=O)c2ccc3[nH]c4c5c(c6c(c4c3c2)C(=O)NC6=O)CCC5)CC1` [Compound 2g], which IC50 is on record?
Its IC50 is 16 nM.

How did the IC50 turn out when `O=C1NC(=O)c2c1c1c(c3[nH]c4ccc(CNCc5ccccc5)cc4c23)CCC1` [Compound 2bq] was run?
Its IC50 is 26 nM.

How did the IC50 turn out when `CCCCC(=O)NCc1nc(-c2ccc3[nH]c4c5c(c6c(c4c3c2)C(=O)NC6=O)CCC5)cs1` [Compound 3v] was run?
The IC50 was 56 nM.

`CN(CC1CCNCC1)C(=O)c1ccc2[nH]c3c4c(c5c(c3c2c1)C(=O)NC5=O)CCC4` [Compound 2cy] was tested. Which IC50 did it give?
The IC50 was 23 nM.

For `NC(=O)c1ccc2[nH]c3c4c(c5c(c3c2c1)C(=O)NC5=O)CCC4` [Compound 2bh], which IC50 is on record?
Its IC50 is 31 nM.

Which IC50 does the source give for `CCN(CC)CC(=O)c1ccc2[nH]c3c4c(c5c(c3c2c1)C(=O)NC5=O)CCC4` [Compound 2j] here?
Its IC50 is 21 nM.

`O=C(CCC(=O)N1CCCCC1)c1ccc2[nH]c3c4c(c5c(c3c2c1)C(=O)NC5=O)CCC4` [Compound 4p] was tested. Which IC50 did it give?
The IC50 was 10 nM.

How did the IC50 turn out when `CN(C)CCCNC(=O)c1ccc2[nH]c3c4c(c5c(c3c2c1)C(=O)NC5=O)CCC4` [Compound 2ch] was run?
The IC50 was 33 nM.

For `CCNCc1ccc2[nH]c3c4c(c5c(c3c2c1)C(=O)NC5=O)CCC4` [Compound 2bk], which IC50 is on record?
Its IC50 is 32 nM.

How did the IC50 turn out when `O=C1NC(=O)c2c1c1c(c3[nH]c4ccc(O)cc4c23)CCC1` [Compound 2ao] was run?
Its IC50 is 27 nM.

With `NC(CCCNc1nc(-c2ccc3[nH]c4c5c(c6c(c4c3c2)C(=O)NC6=O)CCC5)cs1)C(=O)O` (centres unmarked) [Compound 3f] as the compound, how does the IC50 read?
Its IC50 is 22 nM.

For `COC(=O)CCCC(=O)NCc1ccc2[nH]c3c4c(c5c(c3c2c1)C(=O)NC5=O)CCC4` [Compound 2aa, 3-(N-(4-(Methoxycarbonyl)butanoyl)aminomethyl)-5,7,8,9,10,11-hexahydrocyclopent[a]pyrrolo[3,4-c]carbazole-5(6H), 7-dione], which IC50 is on record?
The IC50 was 9 nM.

`NCc1nc(-c2ccc3[nH]c4c5c(c6c(c4c3c2)C(=O)NC6=O)CCC5)cs1` [Compound 3k] was tested. Which IC50 did it give?
Its IC50 is 42 nM.

How did the IC50 turn out when `CN(CC(=O)O)CC(=O)c1ccc2[nH]c3c4c(c5c(c3c2c1)C(=O)NC5=O)CCC4` [Compound 2l] was run?
The IC50 was 8 nM.

`O=C(CCC(=O)c1ccc2[nH]c3c4c(c5c(c3c2c1)C(=O)NC5=O)CCC4)NCCO` [Compound 4g] was tested. Which IC50 did it give?
Its IC50 is 9 nM.

How did the IC50 turn out when `CC(C)(C)OC(=O)NCc1ccc2[nH]c3c4c(c5c(c3c2c1)C(=O)NC5=O)CCC4` [Compound 2ad, 3-(N-Boc-aminomethyl)-5,7,8,9,10,11-hexahydrocyclopent[a]pyrrolo[3,4-c]carbazole-5(6H), 7-dione] was run?
The IC50 was 93 nM.

Which IC50 does the source give for `CC(=O)Nc1nc(-c2ccc3[nH]c4c5c(c6c(c4c3c2)C(=O)NC6=O)CCC5)cs1` [Compound 3i] here?
The IC50 was 54 nM.

With `COCCNC(=O)c1ccc2[nH]c3c4c(c5c(c3c2c1)C(=O)NC5=O)CCC4` [Compound 2co] as the compound, how does the IC50 read?
Its IC50 is 18 nM.

How did the IC50 turn out when `CN(Cc1ccncc1)C(=O)c1ccc2[nH]c3c4c(c5c(c3c2c1)C(=O)NC5=O)CCC4` [Compound 2cx] was run?
The IC50 was 10 nM.

With `Cc1nc(-c2ccc3[nH]c4c5c(c6c(c4c3c2)C(=O)NC6=O)CCC5)cs1` [Compound 3b] as the compound, how does the IC50 read?
The IC50 was 40 nM.

With `O=C(NCCN1CCCCC1)c1ccc2[nH]c3c4c(c5c(c3c2c1)C(=O)NC5=O)CCC4` [Compound 2cm] as the compound, how does the IC50 read?
The IC50 was 148 nM.

How did the IC50 turn out when `CN1CCN(C(=O)c2ccc3[nH]c4c5c(c6c(c4c3c2)C(=O)NC6=O)CCC5)CC1` [Compound 2cq] was run?
Its IC50 is 12 nM.

With `O=C(O)C(=O)c1ccc2[nH]c3c4c(c5c(c3c2c1)C(=O)NC5=O)CCC4` [Compound 2bb] as the compound, how does the IC50 read?
Its IC50 is 5 nM.

How did the IC50 turn out when `O=C1NC(=O)c2c1c1c(c3[nH]c4ccc(C(=O)N5CCOCC5)cc4c23)CCC1` [Compound 2cp] was run?
The IC50 was 12 nM.

How did the IC50 turn out when `O=C1NC(=O)c2c1c1c(c3[nH]c4ccc(CO)cc4c23)CCC1` [Compound 2aw] was run?
Its IC50 is 22 nM.

Which IC50 does the source give for `CC(C)(C)OC(=O)NCCNC(=O)CCC(=O)c1ccc2[nH]c3c4c(c5c(c3c2c1)C(=O)NC5=O)CCC4` [Compound 4d] here?
Its IC50 is 16 nM.

`Cc1sc(N)nc1-c1ccc2[nH]c3c4c(c5c(c3c2c1)C(=O)NC5=O)CCC4` [Compound 3d] was tested. Which IC50 did it give?
The IC50 was 50 nM.

Which IC50 does the source give for `CCCC(=O)NCc1ccc2[nH]c3c4c(c5c(c3c2c1)C(=O)NC5=O)CCC4` [Compound 2t, 3-(Butanoylaminomethyl)-5,7,8,9,10,11-hexahydrocyclopent[a]pyrrolo[3,4-c]carbazole-5(6H), 7-dione] here?
The IC50 was 44 nM.

How did the IC50 turn out when `NCCCC(=O)NCc1ccc2[nH]c3c4c(c5c(c3c2c1)C(=O)NC5=O)CCC4` [Compound 2y, 3-(N-(4-(Amino)butanoyl)aminomethyl)-5,7,8,9,10,11-hexahydrocyclopent[a]pyrrolo[3,4-c]carbazole-5(6H), 7-dione] was run?
The IC50 was 54 nM.

With `NCc1ccc2[nH]c3c4c(c5c(c3c2c1)C(=O)NC5=O)CCC4` [Compound 2p, 3-(Aminomethyl)-5,7,8,9,10,11-hexahydrocyclopent[a]pyrrolo[3,4-c]carbazole-5(6H), 7-dione hydrochloride] as the compound, how does the IC50 read?
Its IC50 is 13 nM.

For `O=C1NC(O)c2c1c1c(c3[nH]c4ccccc4c23)CCC1` (centres unmarked) [Compound 2ay], which IC50 is on record?
Its IC50 is 408 nM.

How did the IC50 turn out when `O=C(NCc1ccncc1)c1ccc2[nH]c3c4c(c5c(c3c2c1)C(=O)NC5=O)CCC4` [Compound 2ci] was run?
The IC50 was 13 nM.

same assay, conditions: Table 3; read-out: PARP IC50

`O=C1NC(=O)c2c1c1c(c3[nH]c4ccccc4c23)CCC1` [Compound 1a, 5,7,8,9,10,11-hexahydrocyclopent[a]pyrrolo[3,4-c]carbazole-5(6H), 7-dione] was tested. Which IC50 did it give?
The IC50 was 36 nM.

same assay, conditions: Table 4; read-out: PARP IC50

With `O=c1[nH][nH]c(=O)c2c1c1c(c3[nH]ccc32)CCC1` [Compound 8e, 1,6,7,8-Tetrahydrocyclopent[g]indole-4,5-dicarboxylate hydrazide] as the compound, how does the IC50 read?
The IC50 was 1820 nM.

same assay, conditions: Table 7; read-out: PARP IC50

Which IC50 does the source give for `COc1ccc2c(c1)[nH]c1c3c(c4c(c12)C(=O)NC4=O)CCC3` [Compound 14a] here?
Its IC50 is 224 nM.

same assay, conditions: Table 18; read-out: PARP IC50

With `O=C1NC(=O)c2c1c1c(c3[nH]c4cccc(OCCO)c4c23)CCC1` [Compound 14k] as the compound, how does the IC50 read?
Its IC50 is 83 nM.

`O=C1NC(=O)c2c1c1c(c3[nH]c4nc(O)ccc4c23)CCC1` [Compound 8n] was tested. Which IC50 did it give?
Its IC50 is 6 nM.

With `COc1ccc2[nH]c3c4c(c5c(c3c2c1OC)C(=O)NC5=O)CCC4` [Compound 14l] as the compound, how does the IC50 read?
Its IC50 is 21 nM.

With `CCOCCOc1cccc2[nH]c3c4c(c5c(c3c12)C(=O)NC5=O)CCC4` [Compound 14i] as the compound, how does the IC50 read?
The IC50 was 36 nM.

`O=C1NC(=O)c2c1c1c(c3[nH]c4nc(O)c(Br)cc4c23)CCC1` [Compound 8p] was tested. Which IC50 did it give?
The IC50 was 20 nM.

For `COc1c(Br)ccc2[nH]c3c4c(c5c(c3c12)C(=O)NC5=O)CCC4` [Compound 14m], which IC50 is on record?
Its IC50 is 67 nM.

Which IC50 does the source give for `O=C1NC(=O)c2c1c1c(c3[nH]c4nc(O)c(Cl)cc4c23)CCC1` [Compound 8s] here?
Its IC50 is 14 nM.

For `CCOc1cccc2[nH]c3c4c(c5c(c3c12)C(=O)NC5=O)CCC4` [Compound 14g], which IC50 is on record?
The IC50 was 56 nM.

`COc1cccc2c1c1c3c(c4c(c1n2CN1CCOCC1)CCC4)C(=O)N(CN1CCOCC1)C3=O` [Compound 16a] was tested. Which IC50 did it give?
Its IC50 is 10 nM.
